According to patent US20220041957A1, “GLUCAMIDE-BASED SURFACTANTS” (Clariant International Ltd., priority 2018, published 2022):

Assays:
Foam (collapse) test = type: physicochemical; conditions: 20 mL of 1 wt. % solution, 20 shakes; for Foam Height, 2 min: after 2 min; for Foam Height, 3 min: after 3 min; for Foam Height, 5 min: after 5 min; for Foam Height, Initial: directly after shaking
Protocol: 20 mL of 1 wt. % solution of each substance were placed into a graduated 100 mL measurement cylinder, which was sealed with a stopper. Foam was generated by 20 shakes. The foam height was determined as mL foam above the aqueous layer directly after shaking, after 2, 3 and 5 min.

[1] = Wetting test on cotton swatches; type: physicochemical; conditions: 0.1 wt. % surfactant solution in water; for Wetting Performance: rating in words; for Wetting time: time until swatch sinks to bottom
Protocol: Cotton swatches (ISO 8022, obtained from wfk-Testgewebe GmbH) were placed in 600 mL beaker, filled with the corresponding 0.1 wt. % surfactant solution in water. The time between placing the swatches into the solution and sinking to the bottom was measured.

| SMILES | Foam Height, 2 min (Foam (collapse) test) [mL] | Foam Height, 3 min (Foam (collapse) test) [mL] | Foam Height, 5 min (Foam (collapse) test) [mL] | Foam Height, Initial (Foam (collapse) test) [mL] | Wetting Performance [1] | Wetting time [1] [s] |
| --- | --- | --- | --- | --- | --- | --- |
| CN(C[C@H](O)[C@@H](O)[C@H](O)[C@H](O)CO)C(=O)CCCCCCCCCCCCCCCO [Example 4] | 67 | 50 | 33 | 89 | poor | >300 |
| CCCCCCCCCCCC(O)CC(=O)N(C)C[C@H](O)[C@@H](O)[C@H](O)[C@H](O)CO (stereo partly drawn) [Example 2] | 60 | 33 | 19 | 80 | good | 60 |
